Data taken from patent publication US20250170266A1 (ZYMEWORKS BC INC., priority 2022, published 2025).
Like-named read-outs stand apart in the source and are kept apart here.

Columns and labels:
Type in all cases: cell-based
[1] = target: T1, hTLR7 (Homo sapiens, UniProt Q9NYK1); assay: Reporter Gene Assay (RGA), HEK-Blue hTLR7 reporter cells, SEAP readout; details: overnight incubation, SEAP absorbance 620 nm
T1 construct: host or cells: HEK-Blue hTLR7 reporter cells (HEK293-derived, own knowledge)
T1 sequence (Q9NYK1 27-1049): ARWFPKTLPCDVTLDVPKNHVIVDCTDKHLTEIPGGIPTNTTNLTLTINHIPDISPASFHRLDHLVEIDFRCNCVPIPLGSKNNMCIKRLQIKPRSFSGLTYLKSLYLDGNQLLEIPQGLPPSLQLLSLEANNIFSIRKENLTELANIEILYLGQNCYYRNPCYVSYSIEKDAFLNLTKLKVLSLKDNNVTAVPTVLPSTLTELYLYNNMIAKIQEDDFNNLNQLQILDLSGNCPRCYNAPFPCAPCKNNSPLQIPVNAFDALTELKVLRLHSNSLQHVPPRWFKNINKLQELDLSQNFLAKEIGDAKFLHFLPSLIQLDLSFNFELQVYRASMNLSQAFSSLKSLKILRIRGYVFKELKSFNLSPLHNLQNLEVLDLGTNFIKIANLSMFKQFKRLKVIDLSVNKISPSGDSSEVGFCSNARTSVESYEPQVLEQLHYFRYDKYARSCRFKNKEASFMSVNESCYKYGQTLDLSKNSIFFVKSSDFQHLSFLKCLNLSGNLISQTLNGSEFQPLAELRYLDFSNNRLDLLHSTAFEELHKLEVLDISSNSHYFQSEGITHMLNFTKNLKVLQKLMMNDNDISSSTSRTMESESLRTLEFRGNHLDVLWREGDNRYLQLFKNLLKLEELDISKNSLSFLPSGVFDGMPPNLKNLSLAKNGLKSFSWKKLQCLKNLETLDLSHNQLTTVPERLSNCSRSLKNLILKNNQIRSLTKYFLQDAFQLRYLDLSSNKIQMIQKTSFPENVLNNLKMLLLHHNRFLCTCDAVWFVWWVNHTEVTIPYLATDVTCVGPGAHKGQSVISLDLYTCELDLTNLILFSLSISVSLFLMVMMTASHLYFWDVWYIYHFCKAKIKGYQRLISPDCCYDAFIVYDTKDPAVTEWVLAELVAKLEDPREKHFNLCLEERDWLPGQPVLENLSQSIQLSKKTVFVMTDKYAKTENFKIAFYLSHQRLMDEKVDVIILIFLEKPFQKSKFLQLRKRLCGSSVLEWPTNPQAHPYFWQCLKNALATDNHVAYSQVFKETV
Method: (§1) 1.5×10^4 HEK-Blue™ hTLR7 (Invivogen, San Diego, CA) or HEK-Blue™ mTLR7 (Invivogen, San Diego, CA) reporter cells were treated with a titration series of test compound (4-fold titration from […], 11 points). Compounds were initially diluted to 1 mM in DMSO and subsequently serial-diluted in assay media (HEK-Blue™ Detection; Invivogen, San Diego, CA). Cells with test compound were incubated overnight at 37° C.+5% CO2, and the amount of secreted embryonic alkaline phosphatase (SEAP) was determined by measuring absorbance (620 nm) using a Synergy™ H1 microplate reader.
(§2) Each assay included a positive control compound (referred to herein as “benchmark,” see, e.g., TABLE 3 below, and taken from International Patent Publication No. WO2017/072662, structure shown below) and a negative control (growth medium). […] The structure of the benchmark compound from International Patent Publication No. WO 2017/072662 is as follows: […]

[2] = target: T2, mTLR7 (Mus musculus, UniProt P58681); assay: Reporter Gene Assay (RGA), HEK-Blue mTLR7 reporter cells, SEAP readout; details: overnight incubation, SEAP absorbance 620 nm
T2 construct: host or cells: HEK-Blue mTLR7 reporter cells (HEK293-derived, own knowledge)
T2 sequence (P58681 27-1050): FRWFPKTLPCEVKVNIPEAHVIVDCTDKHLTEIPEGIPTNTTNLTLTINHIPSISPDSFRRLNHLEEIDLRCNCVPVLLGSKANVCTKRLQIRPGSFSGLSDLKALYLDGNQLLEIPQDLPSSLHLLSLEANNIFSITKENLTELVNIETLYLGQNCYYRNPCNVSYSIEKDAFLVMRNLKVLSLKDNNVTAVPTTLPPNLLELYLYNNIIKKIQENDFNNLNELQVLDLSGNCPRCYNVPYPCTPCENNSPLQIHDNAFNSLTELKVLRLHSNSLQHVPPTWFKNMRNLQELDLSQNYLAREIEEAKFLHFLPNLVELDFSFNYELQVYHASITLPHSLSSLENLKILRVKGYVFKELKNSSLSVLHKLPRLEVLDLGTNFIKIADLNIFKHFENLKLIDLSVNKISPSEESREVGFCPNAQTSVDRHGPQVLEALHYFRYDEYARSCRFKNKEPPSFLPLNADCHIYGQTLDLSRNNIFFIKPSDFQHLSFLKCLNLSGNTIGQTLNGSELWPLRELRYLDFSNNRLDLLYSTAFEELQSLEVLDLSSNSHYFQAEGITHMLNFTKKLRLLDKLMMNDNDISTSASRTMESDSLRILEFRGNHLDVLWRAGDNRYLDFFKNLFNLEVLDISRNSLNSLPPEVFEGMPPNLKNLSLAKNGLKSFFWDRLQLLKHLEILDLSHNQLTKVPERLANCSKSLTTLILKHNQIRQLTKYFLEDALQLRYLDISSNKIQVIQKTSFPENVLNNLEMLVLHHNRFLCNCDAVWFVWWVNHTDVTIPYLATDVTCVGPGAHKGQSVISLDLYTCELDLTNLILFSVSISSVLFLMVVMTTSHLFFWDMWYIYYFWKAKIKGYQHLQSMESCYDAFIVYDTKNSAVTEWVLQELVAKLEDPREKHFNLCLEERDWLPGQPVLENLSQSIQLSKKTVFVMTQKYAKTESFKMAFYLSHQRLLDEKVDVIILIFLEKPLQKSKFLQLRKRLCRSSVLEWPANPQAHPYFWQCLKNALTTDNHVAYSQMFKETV
Method: as §1, §2

[3] = test system: Human peripheral blood mononuclear cells (PBMCs); assay: Human PBMC Assay, cytokine release (HTRF); details: 24 hours; for EC50: PBMC
Source text: Human peripheral blood mononuclear cells (PBMCs) were isolated from fresh Leukopak using magnetic separation. Briefly, erythrocytes and granulocytes were magnetically labeled with Erythrocyte Depletion MicroBeads (Miltenyi Biotec) and Granulocyte Depletion MicroBeads (Miltenyi Biotec), respectively. The cell suspension was loaded onto a Multi-24 Column Block (Miltenyi Biotec) and placed in the magnetic field of a MultiMACS Cell24 Separator Plus (Miltenyi Biotec). The unlabelled PBMCs were collected in the run through. PBMCs were resuspended in CryoStor® CS10 ([…]) and frozen. On the day before the assay, PBMCs were thawed in warm assay buffer (RPMI+10% FBS) and resuspended in assay buffer+10 ng/ml hIL3 (R&D Systems). Cells were rested at 37° C.+5% CO2 overnight. The following day, cells were spun down and resuspended in fresh assay buffer. 300,000 cells were added to each well of plates containing test compound. For test compound preparation, each compound was initially diluted to 1 mM in DMSO and further diluted in assay buffer. A 4-fold 11-point titration starting from 15 μM was performed. Cells were incubated with test compound at 37° C.+5% CO2 for 24 hours before supernatant was harvested. Human interleukin 6 (hIL6), human tumor necrosis factor alpha (hTNFα), and human interferon alpha (hIFNα) were quantified in the supernatant using homogeneous time resolved fluorescence (Cisbio).
as §2

[4] = test system: Mouse splenocytes; assay: Mouse Splenocyte Assay, cytokine release (HTRF); details: 24 hours, mIL6 in supernatant; for EC50: Splenocyte, read-out: Splenocyte IL6 EC50
Method: Mouse splenocytes were isolated from fresh mouse spleens. Briefly, spleens were harvested from female balb/c nude mice and transferred to a 70 μm cell strainer. The cell strainer was subsequently placed in a 6-well suspension culture plate containing 5 mL media (RPMI+10% FBS). The spleens were crushed against the cell strainer using the flat end of a 10 mL syringe plunger and the cell strainer was washed with 5 mL media. The cell strainer was discarded, and the cell suspension was washed in PBS. Red blood cells were removed using PharmaLyse (BD). The cell suspension was washed in media, resuspended in CryoStor® CS10 ([…]) and frozen. On assay day, mouse splenocytes were thawed in warm assay buffer (RPMI+10% FBS). Cells were spun down and resuspended in fresh assay buffer. 100,000 cells were added to each well of plates containing test compound. For test compound preparation, each compound was initially diluted to 1 mM in DMSO and further diluted in assay buffer. A 4-fold 11-point titration starting from 15 μM was performed. Cells were incubated with test compound at 37° C.+5% CO2 for 24 hours before supernatant was harvested. Murine IL6 (mIL6) and murine TNFα (mTNFα) were quantified in the supernatant using homogeneous time resolved fluorescence (Cisbio).
as §2

[5] = hIFNα in supernatant, EC50 values approximated and divided into groups, read-out: PBMC IFNa EC50
[6] = hIL6 in supernatant, read-out: PBMC IL6 EC50

| SMILES | EC50 [1] [nM] | EC50 [2] [nM] | EC50 [4] [nM] | Splenocyte IL6 EC50 (nM) [4] | EC50 [3, 5] [nM] | EC50 [3, 6] [nM] | PBMC IL6 EC50 (nM) ([3]; hIL6 in supernatant) |
| --- | --- | --- | --- | --- | --- | --- | --- |
| CCCCOc1nc(N)c2nc(O)n(Cc3ccc(CNC(CO)[C@@H](C)CC)cc3OC)c2n1 (stereo in doubt) [Compound 161, 6-amino-2-butoxy-9-(4-((((2R,3S)-1-hydroxy-3-methylpentan-2-yl)amino)-methyl)-2-methoxybenzyl)-9H-purin-8-ol] | < 0.1 | < 0.1 | 0.3 |  | < 0.1 | 16.7 |  |
| CCCCCNc1nc(N)nc2ccn(Cc3ccc(CN4CCN(CCNC(=O)CC(SCC(N)C(=O)O)C(=O)O)CC4)cc3OC)c12 (centres unmarked) [Benchmark, reference compound] |  |  | 222 |  | 1 to 10 | 207 |  |
| CCOc1nc(N)c2nc(O)n(Cc3ccc(CN4CCNCC4)cc3OC)c2n1 [Compound 100, 6-amino-2-ethoxy-9-(2-methoxy-4-(piperazin-1-ylmethyl)benzyl)-9H-purin-8-ol] | 6.3 | 77.9 | 2940 |  | 1 to 10 | 240 |  |
| CCCCOc1nc(N)c2nc(O)n(Cc3ccc(CCN4CCC(CCN)CC4)cc3OC)c2n1 [Compound 178, 6-amino-9-(4-(2-(4-(2-aminoethyl)piperidin-1-yl)ethyl)-2-methoxybenzyl)-2-butoxy-9H-purin-8-ol] | 144 |  | 245 |  | 1 to 10 | 284 |  |
| CCCCOc1nc(N)c2nc(O)n(Cc3ccc(CCN4CCC(N)CC4)cc3OC)c2n1 [Compound 181, 6-amino-9-(4-(2-(4-aminopiperidin-1-yl)ethyl)-2-methoxybenzyl)-2-butoxy-9H-purin-8-ol] | 4.5 |  | 235 |  | > 10 |  | inactive |

The next lines start with results.

| EC50 [1] [nM] | EC50 [2] [nM] | EC50 [4] [nM] | Splenocyte IL6 EC50 (nM) [4] | SMILES | EC50 [3, 5] [nM] | EC50 [3, 6] [nM] | PBMC IL6 EC50 (nM) ([3]; hIL6 in supernatant) |
| --- | --- | --- | --- | --- | --- | --- | --- |
| 57 | 47.7 | 154 |  | CCOc1nc(N)c2nc(O)n(Cc3ccc(CNCC(C)(C)O)cc3OC)c2n1 [Compound 101, 6-amino-2-ethoxy-9-(4-(((2-hydroxy-2-methylpropyl)amino)methyl)-2-methoxybenzyl)-9H-purin-8-ol] | 0.1 to 1 | 127 |  |
| 2 | 5 | 99.7 |  | CCOc1nc(N)c2nc(O)n(Cc3ccc(CN(CC)CC)cc3OC)c2n1 [Compound 102, 6-amino-9-(4-((diethylamino)methyl)-2-methoxybenzyl)-2-ethoxy-9H-purin-8-ol] | < 0.1 | 69.1 |  |
| 138 | 27.4 | 1330 |  | CCOc1nc(N)c2nc(O)n(Cc3ccc(CNCCCCCO)cc3OC)c2n1 [Compound 103, 6-amino-2-ethoxy-9-(4-(((5-hydroxypentyl)amino)methyl)-2-methoxy-benzyl)-9H-purin-8-ol] | 0.1 to 1 | 9270 |  |
| 1310 | 1040 | 1360 |  | CCOc1nc(N)c2nc(O)n(Cc3ccc(CNCCCN4CCN(CCCN)CC4)cc3OC)c2n1 [Compound 104, 6-amino-9-(4-(((3-(4-(3-aminopropyl)piperazin-1-yl)propyl)amino)methyl)-2-methoxybenzyl)-2-ethoxy-9H-purin-8-ol] | > 10 | 598 |  |
| 7 | 2.4 | 26.2 |  | CCOc1nc(N)c2nc(O)n(Cc3ccc(CNCc4ccc(CN)cc4)cc3OC)c2n1 [Compound 105, 6-amino-9-(4-(((4-(aminomethyl)benzyl)amino)methyl)-2-methoxybenzyl)-2-ethoxy-9H-purin-8-ol] | < 0.1 | 394 |  |
| 13000 |  |  | inactive | CCOc1nc(N)c2nc(O)n(Cc3ccc(CN[C@@H](Cc4ccccc4)C(=O)O)cc3OC)c2n1 [Compound 117, (4-((6-amino-2-ethoxy-8-hydroxy-9H-purin-9-yl)methyl)-3-methoxybenzyl)-L-phenylalanine] | > 10 |  | inactive |
